{"source": "ChEMBL document CHEMBL1150681", "about": "“New acetylenic acids from the marine sponge Stelletta species” (2003)", "format_in_all_cases": "functional", "details_in_all_cases": "read-out: ED50 (the source's name)", "key": {"SK-OV-3": {"tested_on": "SK-OV-3", "test": "Cytotoxicity against human SKOV3 cells"}, "SK-MEL-2": {"tested_on": "SK-MEL-2", "test": "Cytotoxicity against human SK-MEL-2 cells"}, "A549": {"tested_on": "A549", "test": "Cytotoxicity against human A549 cells"}, "XF498": {"tested_on": "XF498", "test": "Cytotoxicity against human XF498 cells"}, "HCT-15": {"tested_on": "HCT-15", "test": "Cytotoxicity against human HCT15 cells"}}, "data": [{"smiles": "COc1cccc2c1C(=O)c1c(O)c3c(c(O)c1C2=O)C[C@@](O)(C(=O)CO)C[C@@H]3O[C@H]1C[C@H](N)[C@H](O)[C@H](C)O1", "note": "[DOXORUBICIN]", "values": [{"measurement": "EC50", "setting": "SK-OV-3", "value": 0.15, "unit": "µg/mL"}, {"measurement": "EC50", "setting": "SK-MEL-2", "value": 0.03, "unit": "µg/mL"}, {"measurement": "EC50", "setting": "A549", "value": 0.03, "unit": "µg/mL"}, {"measurement": "EC50", "setting": "XF498", "value": 0.15, "unit": "µg/mL"}, {"measurement": "EC50", "setting": "HCT-15", "value": 0.07, "unit": "µg/mL"}]}]}
